In one data set the test system is HIV-1 (IIIB). The experiment in a line: Antiviral assay in MT-4 cells. Type of data set: cell-based. The gist of the method:
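HIV-1 IIIB-infected MT-4 cells (fresh 1:250 virus stock dilution; mock-infected controls) incubated 5 days at 37 °C with serially diluted compounds in RPMI/10% FBS; 5 μM AZT as positive control. Cell viability read by CellTiter-Glo luminescence as measure of protection from viral replication.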

The nature of data set [1]: Cytotoxicity assay in MT-4 cells. Format: cell-based. The note with it: human; uninfected MT-4 cells, 5 days incubation, Cell Titer Glo; read-out: MT4 CC50. Put shortly: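 Uninfected MT-4 cells exposed to serially diluted compounds in RPMI with 10% FBS for 5 days at 37 °C. Viability by Cell Titer Glo chemiluminescence. Puromycin […] as baseline cytotoxicity control.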

Where [2] appears, read: Human immunodeficiency virus 1, MT4, 120 h, HIV-1 IIIB in MT-4 cells, 5 days incubation, Cell Titer Glo, read-out: MT4 EC50.
The mark [3] stands for this setting: Human immunodeficiency virus 1, IIIB, MT4, 120 h, read-out: MT4 EC50 (nM).

Our source for the EC50 and CC50 values is US20250122219A1 (priority 2023, published 2025).

Read-outs that look alike come from different tables or passages of the source.

For the compound `COC1=NO[C@@]2(CC[C@H](C)N3C[C@H]2n2cc(C(=O)NCc4ccc(F)cc4F)c(=O)c(OC(=O)CCCCCCC(C)C)c2C3=O)C1` [Example 66, (3′S,5S,7′R)-10′-((2,4-difluorobenzyl)carbamoyl)-3-methoxy-3′-methyl-1′,11′-dioxo-1′,4′,5′,11′-tetrahydro-3′H,4H,7′H-spiro[isoxazole-5,6′-[2,7]methanopyrido[1,2-a][1,4]diazonin]-12′-yl 8-methylnonanoate], in the data set with HIV-1 (IIIB) (setting [2]), the EC50 came out at 0.316 nM. For the same compound, the 50% cytotoxic concentration (CC50) at 5 days in data set [1] was determined as 22300 nM.
In the same order, the values of `CC1=NO[C@@]2(CC[C@H](C)N3C[C@H]2n2cc(C(=O)NCc4ccc(F)cc4F)c(=O)c(OC(=O)CCCCCCC(C)C)c2C3=O)C1` [Example 67, (3′S,5S,7′R)-10′-((2,4-difluorobenzyl)carbamoyl)-3,3′-dimethyl-1′,11′-dioxo-1′,4′,5′,11′-tetrahydro-3′H,4H,7′H-spiro[isoxazole-5,6′-[2,7]methanopyrido[1,2-a][1,4]diazonin]-12′-yl 8-methylnonanoate] are 0.196 nM and 18900 nM.
In the same order, the values of `CC/C=C\C/C=C\C/C=C\C/C=C\C/C=C\CCCC(=O)Oc1c2n(cc(C(=O)NCc3ccc(F)cc3F)c1=O)[C@@H]1CN(C2=O)[C@@H](C)CC[C@]12CC(C)=NO2` [Example 68, (3′S,5S,7′R)-10′-((2,4-difluorobenzyl)carbamoyl)-3,3′-dimethyl-1′,11′-dioxo-1′,4′,5′,11′-tetrahydro-3′H,4H,7′H-spiro[isoxazole-5,6′-[2,7]methanopyrido[1,2-a][1,4]diazonin]-12′-yl (5Z,8Z,11Z,14Z,17Z)-icosa-5,8,11,14,17-pentaenoate] are 1.09 nM and 16500 nM.
Regarding `CC/C=C\C/C=C\C/C=C\C/C=C\C/C=C\CCCC(=O)Oc1c2n(cc(C(=O)NCc3ccc(F)cc3F)c1=O)[C@@H]1CN(C2=O)[C@@H](C)CC[C@]12CC(OC)=NO2` [Example 69, (3′S,5S,7′R)-10′-((2,4-difluorobenzyl)carbamoyl)-3-methoxy-3′-methyl-1′,11′-dioxo-1′,4′,5′,11′-tetrahydro-3′H,4H,7′H-spiro[isoxazole-5,6′-[2,7]methanopyrido[1,2-a][1,4]diazonin]-12′-yl (5Z,8Z,11Z,14Z,17Z)-icosa-5,8,11,14,17-pentaenoate], the EC50 with HIV-1 (IIIB) (setting [2]) was 0.54 nM. Besides, in data set [1], the 50% cytotoxic concentration (CC50) at 5 days worked out at 42200 nM.
With `COCCCCCC(=O)Oc1c2n(cc(C(=O)NCc3ccc(F)cc3F)c1=O)[C@@H]1CN(C2=O)[C@@H](C)CC[C@]12CC(OC)=NO2` [Example 70, (3′S,5S,7′R)-10′-((2,4-difluorobenzyl)carbamoyl)-3-methoxy-3′-methyl-1′,11′-dioxo-1′,4′,5′,11′-tetrahydro-3′H,4H,7′H-spiro[isoxazole-5,6′-[2,7]methanopyrido[1,2-a][1,4]diazonin]-12′-yl 6-methoxyhexanoate], the EC50 in the data set with HIV-1 (IIIB) (setting [2]) came to 1.02 nM. For the same compound, in data set [1], the CC50 at 5 days is 17600 nM.
Regarding `COCCCCCC(=O)Oc1c2n(cc(C(=O)NCc3ccc(F)cc3F)c1=O)[C@@H]1CN(C2=O)[C@@H](C)CC[C@]12CC(C)=NO2` [Example 71, (3′S,5S,7′R)-10′-((2,4-difluorobenzyl)carbamoyl)-3,3′-dimethyl-1′,11′-dioxo-1′,4′,5′,11′-tetrahydro-3′H,4H,7′H-spiro[isoxazole-5,6′-[2,7]methanopyrido[1,2-a][1,4]diazonin]-12′-yl 6-methoxyhexanoate], in the data set with HIV-1 (IIIB) (setting [2]), the EC50 stood at 1.79 nM. Moreover, the cytotoxic concentration (CC50) at 5 days in data set [1] turned out to be 19500 nM.
In the same order, the values of `COC1=NO[C@@]2(CC[C@H](C)N3C[C@H]2n2cc(C(=O)NCc4ccc(F)cc4F)c(=O)c(OC(=O)CCCC(=O)O)c2C3=O)C1` [Example 73, 5-(((3′S,5S,7′R)-10′-((2,4-difluorobenzyl)carbamoyl)-3-methoxy-3′-methyl-1′,11′-dioxo-1′,4′,5′,11′-tetrahydro-3′H,4H,7′H-spiro[isoxazole-5,6′-[2,7]methanopyrido[1,2-a][1,4]diazonin]-12′-yl)oxy)-5-oxopentanoic acid] are 0.797 nM and 20200 nM.
On to `CC1=NO[C@@]2(CC[C@H](C)N3C[C@H]2n2cc(C(=O)NCc4ccc(F)cc4F)c(=O)c(OC(=O)/C=C/C(=O)O)c2C3=O)C1` [Example 75, (E)-4-(((3′S,5S,7′R)-10′-((2,4-difluorobenzyl)carbamoyl)-3,3′-dimethyl-1′,11′-dioxo-1′,4′,5′,11′-tetrahydro-3′H,4H,7′H-spiro[isoxazole-5,6′-[2,7]methanopyrido[1,2-a][1,4]diazonin]-12′-yl)oxy)-4-oxobut-2-enoic acid], for which, in the data set on HIV-1 (IIIB) (setting [3]), the EC50 was determined as 1.6 nM. The CC50 at 5 days in data set [1] worked out at 16100 nM.
As for `CC1=NO[C@@]2(CC[C@H](C)N3C[C@H]2n2cc(C(=O)NCc4ccc(F)cc4F)c(=O)c(OC(=O)CCCCCCCCCCCCCCCCC(=O)O)c2C3=O)C1` [Example 76, 18-(((3′S,5S,7′R)-10′-((2,4-difluorobenzyl)carbamoyl)-3,3′-dimethyl-1′,11′-dioxo-1′,4′,5′,11′-tetrahydro-3′H,4H,7′H-spiro[isoxazole-5,6′-[2,7]methanopyrido[1,2-a][1,4]diazonin]-12′-yl)oxy)-18-oxooctadecanoic acid], the EC50 in the data set with HIV-1 (IIIB) (setting [2]) came out at 0.518 nM. The CC50 at 5 days in data set [1] turned out to be 46000 nM.
In the same order, the values of `COC1=NO[C@@]2(CC[C@H](C)N3C[C@H]2n2cc(C(=O)NCc4ccc(F)cc4F)c(=O)c(OC(=O)CCCCCCCCCCCCCCCCC(=O)O)c2C3=O)C1` [Example 77, 18-(((3′S,5S,7′R)-10′-((2,4-difluorobenzyl)carbamoyl)-3-methoxy-3′-methyl-1′,11′-dioxo-1′,4′,5′,11′-tetrahydro-3′H,4H,7′H-spiro[isoxazole-5,6′-[2,7]methanopyrido[1,2-a][1,4]diazonin]-12′-yl)oxy)-18-oxooctadecanoic acid] are 0.658 nM and ≥ 50000 nM.
In the same order, the values of `COC(=O)N[C@H](C(=O)Oc1c2n(cc(C(=O)NCc3ccc(F)cc3F)c1=O)[C@@H]1CN(C2=O)[C@@H](C)CC[C@]12CC(OC)=NO2)C(C)C` [Example 80] are 1.3 nM and 19800 nM.
In the same order, the values of `COC(=O)N[C@H](C(=O)Oc1c2n(cc(C(=O)NCc3ccc(F)cc3F)c1=O)[C@@H]1CN(C2=O)[C@@H](C)CC[C@]12CC(C)=NO2)C(C)C` [Example 81] are 1.44 nM and 18100 nM.
For `COC1=NO[C@@]2(CC[C@H](C)N3C[C@H]2n2cc(C(=O)NCc4ccc(F)cc4F)c(=O)c(OCOC(=O)CCC(C)C)c2C3=O)C1` [Example 82, (((3′S,5S,7′R)-10′-((2,4-difluorobenzyl)carbamoyl)-3-methoxy-3′-methyl-1′,11′-dioxo-1′,4′,5′,11′-tetrahydro-3′H,4H,7′H-spiro[isoxazole-5,6′-[2,7]methanopyrido[1,2-a][1,4]diazonin]-12′-yl)oxy)methyl 4-methylpentanoate], the EC50 in the data set on HIV-1 (IIIB) (setting [3]) was 2.52 nM. The half-maximal cytotoxic concentration (CC50) at 5 days in data set [1] is 17300 nM.
For `COC1=NO[C@@]2(CC[C@H](C)N3C[C@H]2n2cc(C(=O)NCc4ccc(F)cc4F)c(=O)c(OCOC(C)=O)c2C3=O)C1` [Example 83, (((3′S,5S,7′R)-10′-((2,4-difluorobenzyl)carbamoyl)-3-methoxy-3′-methyl-1′,11′-dioxo-1′,4′,5′,11′-tetrahydro-3′H,4H,7′H-spiro[isoxazole-5,6′-[2,7]methanopyrido[1,2-a][1,4]diazonin]-12′-yl)oxy)methyl acetate], the EC50 with HIV-1 (IIIB) (setting [2]) is 2.69 nM. Moreover, in data set [1], the 50% cytotoxic concentration (CC50) at 5 days was determined as 16000 nM.
`CC(=O)OCOc1c2n(cc(C(=O)NCc3ccc(F)cc3F)c1=O)[C@@H]1CN(C2=O)[C@@H](C)CC[C@]12CC(C)=NO2` [Example 84, (((3′S,5S,7′R)-10′-((2,4-difluorobenzyl)carbamoyl)-3,3′-dimethyl-1′,11′-dioxo-1′,4′,5′,11′-tetrahydro-3′H,4H,7′H-spiro[isoxazole-5,6′-[2,7]methanopyrido[1,2-a][1,4]diazonin]-12′-yl)oxy)methyl acetate]: the EC50 with HIV-1 (IIIB) (setting [2]) came out at 3.29 nM. Further, the CC50 at 5 days in data set [1] came out at 19900 nM.
In the same order, the values of `CCC(=O)OCOc1c2n(cc(C(=O)NCc3ccc(F)cc3F)c1=O)[C@@H]1CN(C2=O)[C@@H](C)CC[C@]12CC(OC)=NO2` [Example 85, (((3′S,5S,7′R)-10′-((2,4-difluorobenzyl)carbamoyl)-3-methoxy-3′-methyl-1′,11′-dioxo-1′,4′,5′,11′-tetrahydro-3′H,4H,7′H-spiro[isoxazole-5,6′-[2,7]methanopyrido[1,2-a][1,4]diazonin]-12′-yl)oxy)methyl propionate] are 2.25 nM and 28400 nM.
In the same order, the values of `CCC(=O)OCOc1c2n(cc(C(=O)NCc3ccc(F)cc3F)c1=O)[C@@H]1CN(C2=O)[C@@H](C)CC[C@]12CC(C)=NO2` [Example 86, (((3′S,5S,7′R)-10′-((2,4-difluorobenzyl)carbamoyl)-3,3′-dimethyl-1′,11′-dioxo-1′,4′,5′,11′-tetrahydro-3′H,4H,7′H-spiro[isoxazole-5,6′-[2,7]methanopyrido[1,2-a][1,4]diazonin]-12′-yl)oxy)methyl propionate] are 2.53 nM and 21000 nM.
For `CCCC(=O)OCOc1c2n(cc(C(=O)NCc3ccc(F)cc3F)c1=O)[C@@H]1CN(C2=O)[C@@H](C)CC[C@]12CC(OC)=NO2` [Example 87, (((3′S,5S,7′R)-10′-((2,4-difluorobenzyl)carbamoyl)-3-methoxy-3′-methyl-1′,11′-dioxo-1′,4′,5′,11′-tetrahydro-3′H,4H,7′H-spiro[isoxazole-5,6′-[2,7]methanopyrido[1,2-a][1,4]diazonin]-12′-yl)oxy)methyl butyrate], the EC50 with HIV-1 (IIIB) (setting [2]) was 1.8 nM. The CC50 at 5 days in data set [1] turned out to be 16400 nM.

By EC50 is commonly meant the concentration needed to bring the measured effect to its halfway point. As usually defined, the CC50 is the concentration that lowers cell viability or growth by half.
